Consider nine cell lines from the supplement of paper PMC10307832.

Common to all, as to assay: relative viability (nuclei count vs DMSO), 5 days (fraction); higher = more cells survive
Compound in assay [1]: O=C(c1cc(Cc2n[nH]c(=O)c3ccccc23)ccc1F)N1CCN(C(=O)C2CC2)CC1 [Olaparib] + CC1(C)CCC(c2ccc(Cl)cc2)=C(CN2CCN(c3ccc(C(=O)NS(=O)(=O)c4ccc(N[C@H](CCN5CCOCC5)CSc5ccccc5)c(S(=O)(=O)C(F)(F)F)c4)cc3)CC2)C1 [Navitoclax] (partner 0.5 µM)
The method, boiled down: (§1)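 Lung cancer cell lines were seeded in 1536-well plates and dosed by pin tool the next day, with either a single drug or a fixed anchor-drug dose combined with five library-drug doses (not always all listed) spaced in √10 steps. Five days later, one step fixed the cells and stained their nuclei (final 0.05% Triton X-100, 1% formaldehyde, 1 ug/ml Hoechst), and nuclei were counted on 4× images. Relative viability is the nuclei count in treated wells divided by the count in vehicle wells, and each value is the median of duplicate plates.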

Compound in assay [2]: C[C@@H](Oc1cc(-c2cnn(C3CCNCC3)c2)cnc1N)c1c(Cl)ccc(F)c1Cl [Crizotinib] + CS(=O)(=O)CCNCc1ccc(-c2ccc3ncnc(Nc4ccc(OCc5cccc(F)c5)c(Cl)c4)c3c2)o1 [Lapatinib] (partner 2 µM)
The method, boiled down:
as §1

Compound in assay [3]: CC(C)C[C@H](NC(=O)[C@H](CCc1ccccc1)NC(=O)CN1CCOCC1)C(=O)N[C@@H](Cc1ccccc1)C(=O)N[C@@H](CC(C)C)C(=O)[C@@]1(C)CO1 [Carfilzomib] + CC1(C)CCC(c2ccc(Cl)cc2)=C(CN2CCN(c3ccc(C(=O)NS(=O)(=O)c4ccc(N[C@H](CCN5CCOCC5)CSc5ccccc5)c(S(=O)(=O)C(F)(F)F)c4)cc3)CC2)C1 [Navitoclax] (partner 0.5 µM)
The method, boiled down:
as §1

Compound in assay [4]: CC(C)C[C@H](NC(=O)[C@H](CCc1ccccc1)NC(=O)CN1CCOCC1)C(=O)N[C@@H](Cc1ccccc1)C(=O)N[C@@H](CC(C)C)C(=O)[C@@]1(C)CO1 [Carfilzomib] + Nc1ncn([C@H]2C[C@H](O)[C@@H](CO)O2)c(=O)n1 [Decitabine] (partner 2 µM)
An outline of the steps:
as §1

With H3255, the relative viability amounted to 0.53 in assay [1] (first compound 0.08 µM); 0.426 in assay [1] (first compound 0.253 µM); 0.655 in assay [1] (first compound 2.53 µM); 0.437 in assay [1] (first compound 8 µM); 0.254 in assay [2] (first compound 0.01 µM); 0.267 in assay [2] (first compound 0.03162 µM). Further, the relative viability in assay [2] (first compound 0.1 µM) is 0.234; in assay [2] (first compound 0.3162 µM) it was 0.238; in assay [2] (first compound 1 µM) it was 0.219; in assay [3] (first compound 0.001 µM), 0.676; in assay [3] (first compound 0.003162 µM) it was 0.63; in assay [3] (first compound 0.01 µM), 0.663. Further, the relative viability in assay [3] (first compound 0.03162 µM) was determined as 0.37; in assay [3] (first compound 0.1 µM), 0.151; in assay [4] (first compound 0.001 µM) it was 0.645; in assay [4] (first compound 0.003162 µM), 0.704; in assay [4] (first compound 0.01 µM), 0.684; in assay [4] (first compound 0.1 µM), 0.185.

Consider NCI-H1355, for which the relative viability was determined as 0.959 in assay [1] (first compound 0.08 µM); 0.887 in assay [1] (first compound 0.253 µM); 0.949 in assay [1] (first compound 2.53 µM); 0.881 in assay [1] (first compound 8 µM); 1.04 in assay [2] (first compound 0.03162 µM); 1.07 in assay [2] (first compound 0.1 µM). Moreover, the relative viability in assay [2] (first compound 0.3162 µM) is 0.863; in assay [2] (first compound 1 µM) it was 0.986; in assay [3] (first compound 0.001 µM), 0.792; in assay [3] (first compound 0.003162 µM), 1.02; in assay [3] (first compound 0.01 µM), 0.979; in assay [3] (first compound 0.03162 µM) it was 0.486. Also, the relative viability in assay [3] (first compound 0.1 µM) stood at 0.133; in assay [4] (first compound 0.001 µM), 0.379; in assay [4] (first compound 0.003162 µM) it was 0.402; in assay [4] (first compound 0.01 µM), 0.353; in assay [4] (first compound 0.03162 µM), 0.377; in assay [4] (first compound 0.1 µM), 0.157.

Regarding LCLC-103H, the relative viability in assay [4] (first compound 0.001 µM) turned out to be 0.722; in assay [4] (first compound 0.003162 µM), 0.732; in assay [4] (first compound 0.01 µM) it was 0.793; in assay [4] (first compound 0.03162 µM), 0.728; in assay [4] (first compound 0.1 µM), 0.387.

With NCI-H838, the relative viability in assay [1] (first compound 0.08 µM) turned out to be 1.12; in assay [1] (first compound 0.253 µM) it was 1.06; in assay [1] (first compound 2.53 µM) it was 1.03; in assay [1] (first compound 8 µM), 1.03; in assay [2] (first compound 0.01 µM), 0.689; in assay [2] (first compound 0.03162 µM) it was 1.22. Moreover, the relative viability in assay [2] (first compound 0.3162 µM) is 0.996; in assay [2] (first compound 1 µM) it was 0.987; in assay [3] (first compound 0.001 µM), 1.24; in assay [3] (first compound 0.003162 µM) it was 1.26; in assay [3] (first compound 0.01 µM) it was 1.16; in assay [3] (first compound 0.03162 µM), 0.686. The relative viability in assay [3] (first compound 0.1 µM) was 0.153; in assay [4] (first compound 0.001 µM), 0.437; in assay [4] (first compound 0.003162 µM), 0.498; in assay [4] (first compound 0.01 µM), 0.434; in assay [4] (first compound 0.03162 µM) it was 0.27; in assay [4] (first compound 0.1 µM), 0.178.

On to Calu-6, for which the relative viability in assay [1] (first compound 0.08 µM) came to 0.859; in assay [1] (first compound 0.253 µM), 0.741; in assay [1] (first compound 2.53 µM), 0.764; in assay [1] (first compound 8 µM) it was 0.506; in assay [2] (first compound 0.01 µM), 1.07; in assay [2] (first compound 0.03162 µM), 1.1. Further, the relative viability in assay [2] (first compound 0.1 µM) was determined as 1.07; in assay [2] (first compound 0.3162 µM), 1.05; in assay [2] (first compound 1 µM), 0.991; in assay [3] (first compound 0.001 µM), 0.885; in assay [3] (first compound 0.003162 µM), 0.997; in assay [3] (first compound 0.01 µM) it was 0.561. Moreover, the relative viability is 0.0829 in assay [3] (first compound 0.03162 µM) and 0.0768 in assay [3] (first compound 0.1 µM).

For BEN, the relative viability in assay [1] (first compound 0.08 µM) amounted to 0.0771; in assay [1] (first compound 0.253 µM), 0.0609; in assay [1] (first compound 2.53 µM) it was 0.0668; in assay [1] (first compound 8 µM), 0.0792; in assay [2] (first compound 0.01 µM) it was 0.697; in assay [2] (first compound 0.03162 µM), 0.69. In addition, the relative viability was 0.642 in assay [2] (first compound 0.1 µM); 0.719 in assay [2] (first compound 0.3162 µM); 0.749 in assay [2] (first compound 1 µM); 0.0574 in assay [3] (first compound 0.001 µM); 0.0653 in assay [3] (first compound 0.003162 µM); 0.0797 in assay [3] (first compound 0.01 µM). Further, the relative viability was determined as 0.0533 in assay [3] (first compound 0.03162 µM); 0.047 in assay [3] (first compound 0.1 µM); 0.603 in assay [4] (first compound 0.001 µM); 0.861 in assay [4] (first compound 0.003162 µM); 0.643 in assay [4] (first compound 0.01 µM); 0.577 in assay [4] (first compound 0.03162 µM). Also, the relative viability in assay [4] (first compound 0.1 µM) amounted to 0.26.

Regarding NCI-H1651, the relative viability in assay [1] (first compound 0.08 µM) was found to be 0.97; in assay [1] (first compound 0.253 µM) it was 0.814; in assay [1] (first compound 2.53 µM), 0.654; in assay [1] (first compound 8 µM) it was 0.257; in assay [2] (first compound 0.01 µM), 0.642; in assay [2] (first compound 0.03162 µM), 0.782. Also, the relative viability in assay [2] (first compound 0.1 µM) worked out at 0.722; in assay [2] (first compound 0.3162 µM), 0.893; in assay [2] (first compound 1 µM) it was 0.892; in assay [3] (first compound 0.001 µM), 1.11; in assay [3] (first compound 0.003162 µM), 1.06; in assay [3] (first compound 0.01 µM) it was 0.728. Moreover, the relative viability in assay [3] (first compound 0.03162 µM) was 0.123; in assay [3] (first compound 0.1 µM), 0.0777; in assay [4] (first compound 0.001 µM), 0.467; in assay [4] (first compound 0.003162 µM), 0.677; in assay [4] (first compound 0.01 µM) it was 0.32; in assay [4] (first compound 0.03162 µM), 0.163. Also, the relative viability in assay [4] (first compound 0.1 µM) came to 0.0885.

For the cell line NCI-H2087, the relative viability was determined as 0.968 in assay [1] (first compound 0.08 µM); 0.869 in assay [1] (first compound 0.253 µM); 0.877 in assay [1] (first compound 2.53 µM); 0.728 in assay [1] (first compound 8 µM); 0.936 in assay [2] (first compound 0.01 µM); 1.07 in assay [2] (first compound 0.03162 µM). For the same cell line, the relative viability in assay [2] (first compound 0.1 µM) was 0.915; in assay [2] (first compound 0.3162 µM), 0.557; in assay [2] (first compound 1 µM) it was 1.06; in assay [3] (first compound 0.001 µM), 1.07; in assay [3] (first compound 0.003162 µM), 0.97; in assay [3] (first compound 0.01 µM) it was 0.721. In addition, the relative viability turned out to be 0.115 in assay [3] (first compound 0.03162 µM); 0.0804 in assay [3] (first compound 0.1 µM); 0.214 in assay [4] (first compound 0.001 µM); 0.247 in assay [4] (first compound 0.003162 µM); 0.179 in assay [4] (first compound 0.01 µM); 0.0542 in assay [4] (first compound 0.03162 µM). For the same cell line, in assay [4] (first compound 0.1 µM), the relative viability is 0.0427.

In the case of NCI-H520, the relative viability in assay [1] (first compound 0.08 µM) came to 1.32; in assay [1] (first compound 0.253 µM), 0.932; in assay [1] (first compound 2.53 µM) it was 1.08; in assay [1] (first compound 8 µM), 0.601; in assay [2] (first compound 0.01 µM) it was 0.75; in assay [2] (first compound 0.03162 µM) it was 0.86. For the same cell line, the relative viability in assay [2] (first compound 0.1 µM) is 0.827; in assay [2] (first compound 0.3162 µM), 0.391; in assay [2] (first compound 1 µM), 0.927; in assay [3] (first compound 0.001 µM) it was 1.04; in assay [3] (first compound 0.003162 µM) it was 1.37; in assay [3] (first compound 0.01 µM) it was 0.797. Besides, the relative viability came to 0.183 in assay [3] (first compound 0.03162 µM); 0.168 in assay [3] (first compound 0.1 µM); 0.494 in assay [4] (first compound 0.001 µM); 0.5 in assay [4] (first compound 0.003162 µM); 0.398 in assay [4] (first compound 0.01 µM); 0.16 in assay [4] (first compound 0.03162 µM). For the same cell line, in assay [4] (first compound 0.1 µM), the relative viability worked out at 0.173.
